Test results taken from PubChem BioAssay (NCI).
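Results reflect a 48-hour exposure of cells in 96-well plates to compound at five concentrations. TGI is the concentration that stops growth completely.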

Tests used:
Experiment in all cases: growth of human tumour cells (NCI), 48 h
NCI-H23 lung = system: NCI-H23 lung
A498 renal = system: A498 renal
HT29 colon = system: HT29 colon
HCT-15 colon = system: HCT-15 colon
MDA-MB-435 = system: MDA-MB-435
HCT-116 colon = system: HCT-116 colon
K-562 leukemia = system: K-562 leukemia
OVCAR-4 ovarian = system: OVCAR-4 ovarian
UACC-62 melanoma = system: UACC-62 melanoma
CCRF-CEM leukemia = system: CCRF-CEM leukemia
U251 CNS = system: U251 CNS
786-0 renal = system: 786-0 renal
ACHN renal = system: ACHN renal
HOP-92 NSCLC = system: HOP-92 NSCLC
SNB-19 CNS = system: SNB-19 CNS
MCF7 breast = system: MCF7 breast
OVCAR-8 ovarian = system: OVCAR-8 ovarian
PC-3 prostate = system: PC-3 prostate
SF-268 CNS = system: SF-268 CNS
RPMI-8226 leukemia = system: RPMI-8226 leukemia
SNB-75 CNS = system: SNB-75 CNS
EKVX NSCLC = system: EKVX NSCLC
SN12C renal = system: SN12C renal
IGROV1 ovarian = system: IGROV1 ovarian
OVCAR-3 ovarian = system: OVCAR-3 ovarian
SF-539 CNS = system: SF-539 CNS
UACC-257 melanoma = system: UACC-257 melanoma
NCI/ADR-RES ovarian = system: NCI/ADR-RES ovarian
MDA-MB-231 breast = system: MDA-MB-231 breast
HOP-62 NSCLC = system: HOP-62 NSCLC
SK-MEL-28 melanoma = system: SK-MEL-28 melanoma
A549 NSCLC = system: A549 NSCLC
SK-OV-3 ovarian = system: SK-OV-3 ovarian
LOX IMVI melanoma = system: LOX IMVI melanoma
SW-620 colon = system: SW-620 colon
M14 melanoma = system: M14 melanoma
NCI-H226 lung = system: NCI-H226 lung
OVCAR-5 ovarian = system: OVCAR-5 ovarian
SF-295 CNS = system: SF-295 CNS
MALME-3M melanoma = system: MALME-3M melanoma
NCI-H460 lung = system: NCI-H460 lung
SK-MEL-5 melanoma = system: SK-MEL-5 melanoma
DU-145 prostate = system: DU-145 prostate
T-47D breast = system: T-47D breast
BT-549 breast = system: BT-549 breast
NCI-H522 lung = system: NCI-H522 lung
SR leukemia = system: SR leukemia
UO-31 renal = system: UO-31 renal
TK-10 renal = system: TK-10 renal
HL-60(TB) leukemia = system: HL-60(TB) leukemia
MDA-N = system: MDA-N
RXF 393 renal = system: RXF 393 renal
HCC-2998 colon = system: HCC-2998 colon
MOLT-4 leukemia = system: MOLT-4 leukemia
COLO 205 colon = system: COLO 205 colon
KM12 colon = system: KM12 colon
HS 578T breast = system: HS 578T breast
SK-MEL-2 melanoma = system: SK-MEL-2 melanoma
CAKI-1 renal = system: CAKI-1 renal

`CCOC(=O)/C=C(\C(=O)OCC)n1ccc(=O)n(Cc2cn(COCCOC(C)=O)nn2)c1=O` was tested, and the TGI (NCI-H23 lung) was 32.6 µM, the TGI (A498 renal) was > 69.5 µM and the TGI (HT29 colon) was 30.8 µM. For the same molecule, the TGI (HCT-15 colon) was 38 µM, the TGI (MDA-MB-435) was 37 µM and the TGI (HCT-116 colon) was 33 µM. The TGI (K-562 leukemia) was > 100 µM, the TGI (OVCAR-4 ovarian) was 38.3 µM and the TGI (UACC-62 melanoma) was 38.6 µM. It also gave a TGI (CCRF-CEM leukemia) of 11.9 µM, a TGI (U251 CNS) of 36.7 µM and a TGI (786-0 renal) of 32.9 µM. For the same molecule, the TGI (ACHN renal) was 17.3 µM, the TGI (HOP-92 NSCLC) was 35.3 µM and the TGI (SNB-19 CNS) was > 89.5 µM. For the same molecule, the TGI (MCF7 breast) was 35.1 µM, the TGI (OVCAR-8 ovarian) was 31.1 µM and the TGI (PC-3 prostate) was 41.5 µM. The TGI (SF-268 CNS) was > 57.6 µM, the TGI (RPMI-8226 leukemia) was 55.6 µM and the TGI (SNB-75 CNS) was > 69.4 µM. It also gave a TGI (EKVX NSCLC) of 38.9 µM, a TGI (SN12C renal) of 41.8 µM and a TGI (IGROV1 ovarian) of 44.3 µM. It also gave a TGI (OVCAR-3 ovarian) of 48 µM, a TGI (SF-539 CNS) of 38.9 µM and a TGI (UACC-257 melanoma) of 47.2 µM. For the same molecule, the TGI (NCI/ADR-RES ovarian) was 52.8 µM, the TGI (MDA-MB-231 breast) was 41.1 µM and the TGI (HOP-62 NSCLC) was > 100 µM. For the same molecule, the TGI (SK-MEL-28 melanoma) was 41 µM, the TGI (A549 NSCLC) was > 100 µM and the TGI (SK-OV-3 ovarian) was > 100 µM. For the same molecule, the TGI (LOX IMVI melanoma) was 34.9 µM, the TGI (SW-620 colon) was 31.4 µM and the TGI (M14 melanoma) was > 100 µM. The TGI (NCI-H226 lung) was 29.7 µM, the TGI (OVCAR-5 ovarian) was 55.2 µM and the TGI (SF-295 CNS) was > 100 µM. For the same molecule, the TGI (MALME-3M melanoma) was 30.6 µM, the TGI (NCI-H460 lung) was > 52.5 µM and the TGI (SK-MEL-5 melanoma) was 47.1 µM. The TGI (DU-145 prostate) was > 100 µM, the TGI (T-47D breast) was 55.8 µM and the TGI (BT-549 breast) was 33.2 µM. For the same molecule, the TGI (NCI-H522 lung) was 8.34 µM, the TGI (SR leukemia) was 52.9 µM and the TGI (UO-31 renal) was 34.1 µM. For the same molecule, the TGI (TK-10 renal) was 29.2 µM, the TGI (HL-60(TB) leukemia) was 41.3 µM and the TGI (MDA-N) was > 100 µM. For the same molecule, the TGI (RXF 393 renal) was 38.4 µM, the TGI (HCC-2998 colon) was 30.2 µM and the TGI (MOLT-4 leukemia) was 39.3 µM. The TGI (COLO 205 colon) was 24.2 µM, the TGI (KM12 colon) was > 54.6 µM and the TGI (HS 578T breast) was 63.6 µM. For the same molecule, the TGI (SK-MEL-2 melanoma) was 47.7 µM and the TGI (CAKI-1 renal) was 21.2 µM.

In the case of `C[n+]1c(-c2ccc(/C=C/C=N\NC(=O)c3ccc(C(=O)N/N=C\C=C\c4ccc(-c5cn6ccccc6[n+]5C)cc4)cc3)cc2)cn2ccccc21`, the TGI (NCI-H23 lung) is reported as > 100 µM, the TGI (A498 renal) is reported as > 100 µM and the TGI (HT29 colon) is reported as > 100 µM. The TGI (HCT-15 colon) was > 100 µM, the TGI (MDA-MB-435) was > 100 µM and the TGI (HCT-116 colon) was > 100 µM. The TGI (K-562 leukemia) was > 51.2 µM, the TGI (OVCAR-4 ovarian) was > 100 µM and the TGI (UACC-62 melanoma) was > 100 µM. The TGI (CCRF-CEM leukemia) was > 58.2 µM, the TGI (U251 CNS) was > 100 µM and the TGI (786-0 renal) was > 56.2 µM. The TGI (ACHN renal) was > 100 µM, the TGI (HOP-92 NSCLC) was > 100 µM and the TGI (SNB-19 CNS) was > 100 µM. The TGI (MCF7 breast) was > 100 µM, the TGI (OVCAR-8 ovarian) was > 100 µM and the TGI (PC-3 prostate) was > 100 µM. The TGI (SF-268 CNS) was > 100 µM, the TGI (RPMI-8226 leukemia) was > 84.6 µM and the TGI (SNB-75 CNS) was > 100 µM. For the same molecule, the TGI (EKVX NSCLC) was > 100 µM, the TGI (SN12C renal) was > 100 µM and the TGI (IGROV1 ovarian) was > 100 µM. For the same molecule, the TGI (OVCAR-3 ovarian) was > 100 µM, the TGI (SF-539 CNS) was > 100 µM and the TGI (UACC-257 melanoma) was > 100 µM. The TGI (NCI/ADR-RES ovarian) was > 100 µM, the TGI (MDA-MB-231 breast) was > 58.8 µM and the TGI (HOP-62 NSCLC) was > 100 µM. The TGI (SK-MEL-28 melanoma) was > 100 µM, the TGI (A549 NSCLC) was > 100 µM and the TGI (SK-OV-3 ovarian) was > 100 µM. For the same molecule, the TGI (LOX IMVI melanoma) was > 100 µM, the TGI (SW-620 colon) was > 100 µM and the TGI (M14 melanoma) was > 100 µM. For the same molecule, the TGI (NCI-H226 lung) was > 100 µM, the TGI (OVCAR-5 ovarian) was > 100 µM and the TGI (SF-295 CNS) was > 100 µM. For the same molecule, the TGI (MALME-3M melanoma) was > 100 µM, the TGI (NCI-H460 lung) was > 100 µM and the TGI (SK-MEL-5 melanoma) was > 100 µM. The TGI (DU-145 prostate) was 97.6 µM, the TGI (T-47D breast) was > 80.2 µM and the TGI (BT-549 breast) was > 100 µM. For the same molecule, the TGI (NCI-H522 lung) was > 100 µM, the TGI (SR leukemia) was 42.3 µM and the TGI (UO-31 renal) was > 100 µM. For the same molecule, the TGI (TK-10 renal) was > 100 µM, the TGI (HL-60(TB) leukemia) was > 65.7 µM and the TGI (MDA-N) was > 100 µM. For the same molecule, the TGI (RXF 393 renal) was > 100 µM, the TGI (HCC-2998 colon) was > 100 µM and the TGI (MOLT-4 leukemia) was > 100 µM. The TGI (COLO 205 colon) was > 100 µM, the TGI (KM12 colon) was > 57.5 µM and the TGI (HS 578T breast) was > 100 µM. The TGI (SK-MEL-2 melanoma) was > 100 µM and the TGI (CAKI-1 renal) was > 60.4 µM.

`COC1=C(C)C(=O)c2c(c(COC(N)=O)c3n2CC(OC(C)=O)C3OC(C)=O)C1=O` (configuration not stated) showed a TGI (NCI-H23 lung) of 0.25 µM, a TGI (A498 renal) of 1.34 µM and a TGI (HT29 colon) of 0.25 µM. The TGI (HCT-15 colon) was 0.0692 µM, the TGI (MDA-MB-435) was 0.415 µM and the TGI (HCT-116 colon) was 0.129 µM. The TGI (K-562 leukemia) was > 100 µM, the TGI (OVCAR-4 ovarian) was 1.03 µM and the TGI (UACC-62 melanoma) was 0.245 µM. For the same molecule, the TGI (CCRF-CEM leukemia) was 13.8 µM, the TGI (U251 CNS) was 0.789 µM and the TGI (786-0 renal) was 0.0581 µM. It also gave a TGI (ACHN renal) of 1.03 µM, a TGI (HOP-92 NSCLC) of 0.54 µM and a TGI (SNB-19 CNS) of 2.09 µM. It also gave a TGI (MCF7 breast) of 1.23 µM, a TGI (OVCAR-8 ovarian) of 0.373 µM and a TGI (PC-3 prostate) of 0.402 µM. The TGI (SF-268 CNS) was 0.674 µM, the TGI (RPMI-8226 leukemia) was 1.36 µM and the TGI (SNB-75 CNS) was 1.09 µM. The TGI (EKVX NSCLC) was 0.678 µM, the TGI (SN12C renal) was 1.09 µM and the TGI (IGROV1 ovarian) was 0.402 µM. For the same molecule, the TGI (OVCAR-3 ovarian) was 0.416 µM, the TGI (SF-539 CNS) was 0.165 µM and the TGI (UACC-257 melanoma) was 0.375 µM. It also gave a TGI (NCI/ADR-RES ovarian) of 0.979 µM, a TGI (MDA-MB-231 breast) of 0.515 µM and a TGI (HOP-62 NSCLC) of 0.563 µM. For the same molecule, the TGI (SK-MEL-28 melanoma) was 0.816 µM, the TGI (A549 NSCLC) was 1.6 µM and the TGI (SK-OV-3 ovarian) was 1.57 µM. The TGI (LOX IMVI melanoma) was 1.06 µM, the TGI (SW-620 colon) was 0.166 µM and the TGI (M14 melanoma) was 0.514 µM. It also gave a TGI (NCI-H226 lung) of 1.39 µM, a TGI (OVCAR-5 ovarian) of 0.652 µM and a TGI (SF-295 CNS) of 0.657 µM. It also gave a TGI (MALME-3M melanoma) of 0.156 µM, a TGI (NCI-H460 lung) of 0.235 µM and a TGI (SK-MEL-5 melanoma) of 0.392 µM. For the same molecule, the TGI (DU-145 prostate) was 0.265 µM, the TGI (T-47D breast) was 3.11 µM and the TGI (BT-549 breast) was 1.21 µM. It also gave a TGI (NCI-H522 lung) of 0.0379 µM, a TGI (SR leukemia) of 0.0442 µM and a TGI (UO-31 renal) of 0.49 µM. For the same molecule, the TGI (TK-10 renal) was 1.56 µM, the TGI (HL-60(TB) leukemia) was 0.202 µM and the TGI (MDA-N) was 0.29 µM. The TGI (RXF 393 renal) was 0.428 µM, the TGI (HCC-2998 colon) was 0.262 µM and the TGI (MOLT-4 leukemia) was 2.03 µM. The TGI (COLO 205 colon) was 0.314 µM, the TGI (KM12 colon) was 0.939 µM and the TGI (HS 578T breast) was 1.09 µM. For the same molecule, the TGI (SK-MEL-2 melanoma) was 0.387 µM and the TGI (CAKI-1 renal) was < 0.0278 µM.
